Experimental data reported in patent US6664393B2 (priority 1999, dated 2003).
Like-named read-outs stand apart in the source and are kept apart here.

Key:
[1] = target: T1, factor VIIa/tissue factor (Homo sapiens, UniProt P08709); assay: Factor VIIa assay (chromogenic, substrate S-2288); type: biochemical
T1 construct: 25 μl human factor VIIa and TF (5 nM and 10 nM, respective final concentrations)
Description: (§1) Purified enzymes are used in chromogenic assays.
(§2) Ki=IC50/{1+(substrate concentration/Km)}
Kinetic assays were conducted at 25° C. in half-area microtiter plates (Costar Corp., Cambridge, Mass.) using a kinetic plate reader (Molecular Devices Spectramax 250).

human factor Xa = target: T2, human factor Xa (Homo sapiens, UniProt P00742); assay: Factor Xa assay (chromogenic, substrate S-2765); type: biochemical
T2 construct: purchased Enzyme Research Laboratories, Inc; South Bend, Ind
Description: as §1, §2
The assay was performed by pre-incubating the compound of interest of formula I plus enzyme for 10 min. The assay was then initiated by adding substrate to obtain a final volume of 100 μl. The initial velocity of chromogenic substrate hydrolysis was measured by the change in absorbance at 405 nm using a Bio-tek Instruments kinetic plate reader (Ceres UV9OOHDi) at 25° C. during the linear portion of the time course (usually 1.5 min after addition of substrate).

[2] = inhibition constant for inhibition of factor VIIa, 5 nM factor VIIa and 10 nM TF, 25° C., 500 μM substrate, read-out: Ki (FVIIa)
[3] = inhibition constant for inhibition of factor Xa, 25° C., 0.5 nM enzyme, 140 μM substrate, read-out: Ki (FXa)

T1 sequence (P08709 61-212): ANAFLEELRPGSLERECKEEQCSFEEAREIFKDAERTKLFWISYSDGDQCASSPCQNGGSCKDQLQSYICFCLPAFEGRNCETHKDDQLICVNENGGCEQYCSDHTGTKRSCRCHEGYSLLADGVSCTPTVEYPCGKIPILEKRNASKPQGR
T1 sequence (P08709 213-466): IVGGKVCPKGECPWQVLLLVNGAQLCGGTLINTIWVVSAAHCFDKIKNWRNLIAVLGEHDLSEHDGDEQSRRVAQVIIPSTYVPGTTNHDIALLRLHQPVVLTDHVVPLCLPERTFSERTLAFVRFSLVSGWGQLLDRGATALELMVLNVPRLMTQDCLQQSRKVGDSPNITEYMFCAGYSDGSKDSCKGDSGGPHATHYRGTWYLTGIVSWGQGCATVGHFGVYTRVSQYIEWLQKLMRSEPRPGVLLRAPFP
T1 sequence (P13726 33-295, further chain): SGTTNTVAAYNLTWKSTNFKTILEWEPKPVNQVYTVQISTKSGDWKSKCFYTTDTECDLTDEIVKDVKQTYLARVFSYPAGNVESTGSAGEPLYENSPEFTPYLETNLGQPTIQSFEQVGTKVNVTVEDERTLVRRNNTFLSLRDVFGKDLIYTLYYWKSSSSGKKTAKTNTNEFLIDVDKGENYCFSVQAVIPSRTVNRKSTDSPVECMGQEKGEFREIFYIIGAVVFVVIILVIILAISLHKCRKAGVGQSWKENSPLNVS
T2 sequence (P00742 235-488 limits assumed): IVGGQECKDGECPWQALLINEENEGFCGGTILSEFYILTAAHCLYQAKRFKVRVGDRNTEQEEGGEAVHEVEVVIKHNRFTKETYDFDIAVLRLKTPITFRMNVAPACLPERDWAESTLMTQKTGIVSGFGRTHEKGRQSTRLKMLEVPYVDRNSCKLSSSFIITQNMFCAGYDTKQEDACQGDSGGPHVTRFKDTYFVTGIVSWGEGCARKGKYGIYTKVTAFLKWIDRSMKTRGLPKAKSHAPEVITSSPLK
T2 sequence (P00742 41-179 limits assumed): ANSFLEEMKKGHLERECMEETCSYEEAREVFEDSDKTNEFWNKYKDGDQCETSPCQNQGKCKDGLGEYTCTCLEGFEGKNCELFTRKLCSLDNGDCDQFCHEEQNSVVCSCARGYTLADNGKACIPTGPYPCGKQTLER

| Compound | Ki [1, 2] | Ki (human factor Xa) | Ki [1] | Ki (human factor Xa; [3]) |
| --- | --- | --- | --- | --- |
| CCCOC(=O)[C@H](CCCNC(=N)N)NC(=O)c1ccc(OC)c(OCCc2ccc(Cl)cc2Cl)c1 [Example 50] | > 200000 nM | 729 nM | – | – |
| Cc1ccc(CCOc2cccc(C(=O)N[C@@H](CCCNC(=N)N)C(N)=O)c2)cc1 [Example 16] | – | 6150 nM | – | – |
| N=C(N)NCCC[C@H](NC(=O)c1ccc(NC(=O)CCC(=O)O)c(OCCc2ccc(Cl)cc2Cl)c1)C(N)=O [Example 4, (S)-N-{4-(1-Carbamoyl-4-guanidinobutylcarbamoyl)-2-[2-(2,4-dichlorophenyl)ethoxy]phenyl}succinamic Acid] | 42000 nM | 354 nM | – | – |
| Cc1cc(C)c(CCOc2cc(C(=O)N[C@@H](CCCNC(=N)N)C(N)=O)nc3ccccc23)c(C)c1 [Example 32] | – | 13000 nM | 13000 nM | – |
| N=C(N)NCCC[C@H](NC(=O)c1cc(O)c(Br)c(OCCc2ccc(Cl)cc2Cl)c1)C(N)=O [Example 5, (S)-4-Bromo-N-(1-carbamoyl-4-guanidinobutyl)-3-[2-(2,4-dichlorophenyl)-ethoxy]-5-hydroxybenzamide] | 58000 nM | 18 nM | – | – |
| N=C(N)NCCC[C@H](NC(=O)c1cccc(OCCc2ccc(Cl)cc2)c1)C(N)=O [Example 8] | – | 1100 nM | – | – |
| N=C(N)NCCC[C@H](NC(=O)c1cc(O)c(Br)c(OCCc2ccc(Cl)cc2Cl)c1)C(=O)NCc1cccnc1 [Example 39, (S)-4-Bromo-3-[2-(2,4-dichlorophenyl)ethoxy]-N-{4-guanidino-1-[(pyridin-3-ylmethyl)carbamoyl]butyl}-5-hydroxybenzamide] | > 200000 nM | 445 nM | – | – |
| N=C(N)NCCC[C@H](NC(=O)c1ccc([N+](=O)[O-])c(OCCc2ccc(Cl)cc2)c1)C(N)=O [Example 11] | – | 192 nM | – | – |
| COc1ccc(C(=O)N[C@@H](CCCNC(=N)N)C(=O)N(C)C)cc1OCCc1ccc(Cl)cc1Cl [Example 48] | > 200000 nM | 560 nM | – | – |
| N=C(N)NCCC[C@H](NC(=O)c1ccc([N+](=O)[O-])c(OCCc2ccc(Cl)cc2Cl)c1)C(N)=O [Example 1, (S)-4-Nitro-N-(1-carbamoyl-4-guanidinobutyl)-3-[2-(2,4-dichlorophenyl)ethoxy]benzamide] | 188000 nM | 48 nM | – | – |
| N=C(N)NCCC[C@H](NC(=O)c1cc(OCCc2ccc(Cl)cc2Cl)c2ccccc2n1)C(N)=O [Example 34] | 9800 nM | 750 nM | – | – |
| N=C(N)NCCC[C@H](NC(=O)c1cc(O)c(Br)c(OCCc2ccc(Cl)cc2Cl)c1)C(=O)O [Example 46] | > 200000 nM | 59 nM | – | – |
| Cc1c(O)cc(C(=O)N[C@@H](CCCNC(=N)N)C(N)=O)cc1OCCc1ccc(Cl)cc1Cl [Example 6, (S)-N-(1-Carbamoyl-4-guanidinobutyl)-3-[2-(2,4-dichlorophenyl)ethoxy]-5-hydroxy-4-methylbenzamide] | 7500 nM | 38 nM | – | – |
| CN(C)C(=O)[C@H](CCCNC(=N)N)NC(=O)c1cc(O)c(Br)c(OCCc2ccc(Cl)cc2Cl)c1 [Example 45] | > 200000 nM | 31 nM | – | – |
| CC(=O)Nc1ccc(C(=O)N[C@@H](CCCNC(=N)N)C(N)=O)cc1OCCc1ccc(Cl)cc1Cl [Example 3, (S)-4-Acetylamino-N-(1-carbamoyl-4-guanidinobutyl)-3-[2-(2,4-dichlorophenyl)ethoxy]benzamide] | – | – | – | 670 nM |
| N=C(N)NCCC[C@H](NC(=O)c1ccc(N)c(OCCc2ccc(Cl)cc2Cl)c1)C(N)=O [Example 2, (S)-4-Amino-N-(-carbamoyl-4-guanidinobutyl)-3-[2-(2,4-dichlorophenyl)ethoxy]benzamide] | – | – | – | 76 nM |
| CCCOC(=O)[C@H](CCCNC(=N)N)NC(=O)c1cc(O)c(Br)c(OCCc2ccc(Cl)cc2Cl)c1 [Example 47] | > 200000 nM | 21 nM | – | – |
